Assay results published in PubChem BioAssay AID1963852 (Molecular Pharmacology Branch, DTP, NCI, 2024).
Where “and” joins values, the source holds several entries; their conditions need not be identical. Equal entries are not always repeated.

System: 282377-053-R-J1-PDC complex spheroid viability
Assay: Anticancer human tumor 282377-053-R-J1-PDC patient-derived colon adenocarcinoma cell line growth inhibition [POLQ]
Conditions: for viability, T/C: stronger effect = lower value
Method: Multicellular complex tumor spheroid response to Polymerase (POL) inhibitors (novobiocin, ART-558, RP6685) in combination with a variety of drugs and investigational agents in selected tumor cell lines
The POL inhibitors (novobiocin, ART-558, and RP6685) were evaluated both individually and in combination with standard of care and investigational anticancer small molecules within a complex spheroid model of solid tumors. . Complex spheroids include a stromal component modeled by human endothelial cells (HUVEC) and fibroblasts modeled by human mesenchymal stem cells (MSCs). The concentration ranges selected for each drug and investigational agent were based upon clinically achievable concentrations if the clinical Cmax of the agent was known.
Compounds. The drugs and investigational agents: novobiocin (NSC847541), ART-558 (NSC835418), RP-6685 (NSC848927), peposertib (NSC802822), ceralasertib (NSC780249), elimusertib (NSC800525), camonsertib (NSC841442), AZD-1390 (NSC803789), olaparib (NSC753686), talazoparib (NSC767125), rucaparib (NSC756644), sotorasib (NSC818433), MRTX-1133 (NSC836407), SN-38 (NSC673596), topotecan (NSC609699), epotoside (NSC141540), doxorubicin (NSC123127), gemcitabine (NSC613327), 5-fluorouracil (NSC19893), paclitaxel (NSC125973), vemurafenib (NSC761431), MSA-2 (NSC828583), SN-011 (NSC837082), adavosertib (NSC754352), prexasertib (NSC758257), carboplatin (NSC241240) and oxaliplatin (NSC266046), were obtained from the National Cancer Institute (NCI) Developmental Therapeutics Program Chemical Repository (21). The FDA-approved anticancer drug set is available from the Developmental Therapeutics Program at https://dtp.cancer.gov/organization/dscb/obtaining/. […] The stock solutions were prepared in dimethyl sulfoxide (DMSO, Sigma-Aldrich, St. Louis, MO, cat. D2650), except for the platinum compounds which were prepared in saline (Quality Biological, Gaithersburg, MD, cat. 114-055-101), at 800-fold the tested concentration and stored at -70 degrees C prior to their use. All drugs and investigational agents were tested over a range starting from a high concentration at or near the clinical Cmax and decreasing in half-log increments. If the clinical Cmax for an agent had not been determined, the highest concentration tested was 10 microM, except for SN-38, which was tested at a high concentration of 1 microM.
Cell Culture. All cells were maintained in an incubator at 37 degrees C and 5% CO2 with 95% humidity. The PDC lines were cultured according to standard operating procedures established by the NCI PDMR (https://pdmr.cancer.gov). Table 3 of the manuscript, lists the cell lines along with the number of the three cell types plated to form the mct-spheroids and media for tumor cell growth. After thawing, all PDC lines, except 997537-175-T-J1-PDC and 415267-285-R-J2-PDC, were cultured in Matrigel-coated flasks prepared with a working solution of 1X Ham's F-12 nutrient mix, without supplementation (Thermo Fisher Scientific, cat. 11765054), 100 U/mL penicillin-streptomycin (Thermo Fisher Scientific, cat. 15140122), and 2.5% Matrigel (Corning Inc., Corning, NY, cat. 354248) for the first three passages. The two PDC lines 997537-175-T-J1-PDC and 415267-285-R-J2-PDC were cultured on uncoated flasks. The 857933-349-R-J2-PDC line was cultured in 6C/Colon 1B media containing advanced DMEM/F-12 (Thermo Fisher Scientific, cat. 12634028), 10 mM HEPES (Thermo Fisher Scientific, cat. 15630080), 1X GlutaMAX supplement (Thermo Fisher Scientific, cat. 35050061), 0.1 mg/mL primocin (InvivoGen, San Diego, CA, cat. ant-pm-2), 10% defined fetal bovine serum, heat inactivated (HyClone Laboratories Inc., Logan, UT, cat. SH30070.03HI), 50% L-WRN conditioned media (ATCC, cat. CRL-3276), 1.25 mM N-Acetyl-L-cysteine (Sigma-Aldrich, cat. A9165), 10 mM nicotinamide (Sigma-Aldrich, cat. N0636), 1X B-27 supplement (Thermo Fisher Scientific, cat. 17504044), 1X N-2 supplement (Thermo Fisher Scientific, cat. […]

[1] = curve of first compound, second compound 0.0316 µM
[2] = curve of first compound, second compound 0.1 µM
[3] = curve of first compound, second compound 0.316 µM
[4] = curve of first compound, second compound 1 µM
[5] = curve of first compound, second compound 3.16 µM
[6] = curve of first compound, second compound 10 µM
[7] = second compound 0.0316 µM, first compound 0.0316 µM
[8] = second compound 0.0316 µM, first compound 0.1 µM
[9] = second compound 0.0316 µM, first compound 0.316 µM
[10] = second compound 0.0316 µM, first compound 1 µM
[11] = second compound 0.0316 µM, first compound 3.16 µM
[12] = second compound 0.0316 µM, first compound 10 µM
[13] = second compound 0.1 µM, first compound 0.0316 µM
[14] = second compound 0.1 µM, first compound 0.1 µM
[15] = second compound 0.1 µM, first compound 0.316 µM
[16] = second compound 0.1 µM, first compound 1 µM
[17] = second compound 0.1 µM, first compound 3.16 µM
[18] = second compound 0.1 µM, first compound 10 µM
[19] = second compound 0.316 µM, first compound 0.0316 µM
[20] = second compound 0.316 µM, first compound 0.1 µM
[21] = second compound 0.316 µM, first compound 0.316 µM
[22] = second compound 0.316 µM, first compound 1 µM
[23] = second compound 0.316 µM, first compound 3.16 µM
[24] = second compound 0.316 µM, first compound 10 µM
[25] = second compound 1 µM, first compound 0.0316 µM
[26] = second compound 1 µM, first compound 0.1 µM
[27] = second compound 1 µM, first compound 0.316 µM
[28] = second compound 1 µM, first compound 1 µM
[29] = second compound 1 µM, first compound 3.16 µM
[30] = second compound 1 µM, first compound 10 µM
[31] = second compound 3.16 µM, first compound 0.0316 µM
[32] = second compound 3.16 µM, first compound 0.1 µM
[33] = second compound 3.16 µM, first compound 0.316 µM
[34] = second compound 3.16 µM, first compound 1 µM
[35] = second compound 3.16 µM, first compound 3.16 µM
[36] = second compound 3.16 µM, first compound 10 µM
[37] = second compound 10 µM, first compound 0.0316 µM
[38] = second compound 10 µM, first compound 0.1 µM
[39] = second compound 10 µM, first compound 0.316 µM
[40] = second compound 10 µM, first compound 1 µM
[41] = second compound 10 µM, first compound 3.16 µM
[42] = second compound 10 µM, first compound 10 µM
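Note: spheroids exposed to compounds for seven days.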
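Throughout, for viability, T/C: 100% = DMSO vehicle control viability.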

`O=c1[nH]cc(F)c(=O)[nH]1` + Nc1ccc(C#CCN(C(=O)Cc2ncc(C(F)(F)F)cc2C(F)(F)F)c2ccc(F)cc2)nn1 was tested, and the IC50 [1] was > 10 µM, the IC50 [2] was > 10 µM and the IC50 [3] was > 10 µM. For the same compound, the IC50 [4] was > 10 µM, the IC50 [5] was > 10 µM and the IC50 [6] was > 10 µM. The viability, T/C [7] was 115%, the viability, T/C [8] was 107% and the viability, T/C [9] was 142%. For the same compound, the viability, T/C [10] was 117%, the viability, T/C [11] was 89.9% and the viability, T/C [12] was 95.1%. The viability, T/C [13] was 107%, the viability, T/C [14] was 126% and the viability, T/C [15] was 109%. For the same compound, the viability, T/C [16] was 91.6%, the viability, T/C [17] was 95.1% and the viability, T/C [18] was 94.5%. The viability, T/C [19] was 118%, the viability, T/C [20] was 98% and the viability, T/C [21] was 111%. For the same compound, the viability, T/C [22] was 99.1%, the viability, T/C [23] was 87.5% and the viability, T/C [24] was 90.7%. For the same compound, the viability, T/C [25] was 106%, the viability, T/C [26] was 103% and the viability, T/C [27] was 116%. The viability, T/C [28] was 108%, the viability, T/C [29] was 112% and the viability, T/C [30] was 95.1%. It also gave a viability, T/C [31] of 119%, a viability, T/C [32] of 122% and a viability, T/C [33] of 121%. For the same compound, the viability, T/C [34] was 118%, the viability, T/C [35] was 98.8% and the viability, T/C [36] was 85.9%. The viability, T/C [37] was 123%, the viability, T/C [38] was 128% and the viability, T/C [39] was 124%. The viability, T/C [40] was 134%, the viability, T/C [41] was 90% and the viability, T/C [42] was 111%.
In the case of `Cn1ncnc1[C@H]1c2n[nH]c(=O)c3cc(F)cc(c23)N[C@@H]1c1ccc(F)cc1`, the viability, T/C (compound 0.000316 µM) is reported as 97.4% and 91% and 104%, the viability, T/C (compound 0.001 µM) is reported as 95.4% and 95.3% and 93.1% and the viability, T/C (compound 0.00316 µM) is reported as 76.2% and 90.7% and 93.6%. The viability, T/C (compound 0.01 µM) was 108% (2×) and 102%, the viability, T/C (compound 0.0316 µM) was 110% and 98.3% and 105% and the viability, T/C (compound 0.1 µM) was 90.5% and 95.2% and 106%. The IC50 (curve of compound) was > 0.1 µM.
With `O=C(c1cc(Cc2n[nH]c(=O)c3ccccc23)ccc1F)N1CCN(C(=O)C2CC2)CC1` + COC1C(OC(N)=O)C(O)C(Oc2ccc3c(O)c(NC(=O)c4ccc(O)c(CC=C(C)C)c4)c(=O)oc3c2C)OC1(C)C the IC50 [1] was > 10 µM, the IC50 [2] was > 10 µM and the IC50 [3] was > 10 µM. For the same compound, the IC50 [4] was > 10 µM, the IC50 [5] was > 10 µM and the IC50 [6] was > 10 µM. For the same compound, the viability, T/C [7] was 128%, the viability, T/C [8] was 97.7% and the viability, T/C [9] was 105%. The viability, T/C [10] was 106%, the viability, T/C [11] was 79.1% and the viability, T/C [12] was 103%. It also gave a viability, T/C [13] of 109%, a viability, T/C [14] of 120% and a viability, T/C [15] of 90.5%. For the same compound, the viability, T/C [16] was 87.8%, the viability, T/C [17] was 105% and the viability, T/C [18] was 101%. It also gave a viability, T/C [19] of 107%, a viability, T/C [20] of 90.1% and a viability, T/C [21] of 99.1%. The viability, T/C [22] was 97.7%, the viability, T/C [23] was 117% and the viability, T/C [24] was 98%. It also gave a viability, T/C [25] of 116%, a viability, T/C [26] of 94.7% and a viability, T/C [27] of 103%. It also gave a viability, T/C [28] of 119%, a viability, T/C [29] of 106% and a viability, T/C [30] of 96%. The viability, T/C [31] was 98.8%, the viability, T/C [32] was 108% and the viability, T/C [33] was 113%. It also gave a viability, T/C [34] of 103%, a viability, T/C [35] of 107% and a viability, T/C [36] of 98.8%. For the same compound, the viability, T/C [37] was 94%, the viability, T/C [38] was 99.4% and the viability, T/C [39] was 102%. The viability, T/C [40] was 110%, the viability, T/C [41] was 96% and the viability, T/C [42] was 80.8%.
